Test results from PubChem BioAssay AID1259407 (Chemical Carcinogenesis Research Information System (CCRIS), 2018).
Activity calls are given as the source filed them. How the calls were made is not given here.

Test system: CCRIS mutagenicity, Ames/micronucleus/aberration tests
Experiment: CCRIS mutagenicity studies
[1] = Test System: AMES SALMONELLA TYPHIMURIUM, Strain/Indicator: TA98, Metabolic Activation: NONE, Method: STANDARD PLATE
[2] = Test System: AMES SALMONELLA TYPHIMURIUM, Strain/Indicator: TA100, Metabolic Activation: NONE, Method: STANDARD PLATE
[3] = Test System: AMES SALMONELLA TYPHIMURIUM, Strain/Indicator: TA1535, Metabolic Activation: NONE, Method: STANDARD PLATE
[4] = Test System: AMES SALMONELLA TYPHIMURIUM, Strain/Indicator: TA1537, Metabolic Activation: NONE, Method: STANDARD PLATE
[5] = Test System: AMES SALMONELLA TYPHIMURIUM, Strain/Indicator: TA1538, Metabolic Activation: NONE, Method: STANDARD PLATE
[6] = Test System: AMES SALMONELLA TYPHIMURIUM, Strain/Indicator: TA98, Metabolic Activation: RAT, LIVER, S-9, Method: STANDARD PLATE
[7] = Test System: AMES SALMONELLA TYPHIMURIUM, Strain/Indicator: TA100, Metabolic Activation: RAT, LIVER, S-9, Method: STANDARD PLATE

SMILES: CC(C)CCCCCCOC(=O)c1ccccc1C(=O)OCCCCCCC(C)C
- mutagenic call [1]: inactive; negative
- mutagenic call (Test System: AMES SALMONELLA TYPHIMURIUM, Strain/Indicator: TA98, Metabolic Activation: RAT LIVER S-9, AROCLOR, Method: STANDARD PLATE): inactive; negative
- mutagenic call [2]: inactive; negative
- mutagenic call (Test System: AMES SALMONELLA TYPHIMURIUM, Strain/Indicator: TA100, Metabolic Activation: RAT LIVER S-9, AROCLOR, Method: STANDARD PLATE): inactive; negative
- mutagenic call [3]: inactive; negative
- mutagenic call (Test System: AMES SALMONELLA TYPHIMURIUM, Strain/Indicator: TA1535, Metabolic Activation: RAT LIVER S-9, AROCLOR, Method: STANDARD PLATE): inactive; negative
- mutagenic call [4]: inactive; negative
- mutagenic call (Test System: AMES SALMONELLA TYPHIMURIUM, Strain/Indicator: TA1537, Metabolic Activation: RAT LIVER S-9, AROCLOR, Method: STANDARD PLATE): inactive; negative
- mutagenic call [5]: inactive; negative
- mutagenic call (Test System: AMES SALMONELLA TYPHIMURIUM, Strain/Indicator: TA1538, Metabolic Activation: RAT LIVER S-9, AROCLOR, Method: STANDARD PLATE): inactive; negative

SMILES: CC(NC(=O)COc1ccc(Cl)cc1Cl)C(=O)O (stereo not drawn)
- mutagenic call (Test System: AMES SALMONELLA TYPHIMURIUM, Strain/Indicator: TA97, Metabolic Activation: RAT, LIVER, S-9, AROCLOR 1254, Method: STANDARD PLATE): inactive; negative
- mutagenic call (Test System: AMES SALMONELLA TYPHIMURIUM, Strain/Indicator: TA97, Metabolic Activation: WOODCHUCK, LIVER, S-9, 3-METHYLCHOLANTHRENE, Method: STANDARD PLATE): inactive; negative
- mutagenic call (Test System: AMES SALMONELLA TYPHIMURIUM, Strain/Indicator: TA98, Metabolic Activation: RAT, LIVER, S-9, AROCLOR 1254, Method: STANDARD PLATE): inactive; negative
- mutagenic call (Test System: AMES SALMONELLA TYPHIMURIUM, Strain/Indicator: TA98, Metabolic Activation: WOODCHUCK, LIVER, S-9, 3-METHYLCHOLANTHRENE, Method: STANDARD PLATE): inactive; negative
- mutagenic call (Test System: AMES SALMONELLA TYPHIMURIUM, Strain/Indicator: TA100, Metabolic Activation: RAT, LIVER, S-9, AROCLOR 1254, Method: STANDARD PLATE): inactive; negative
- mutagenic call (Test System: AMES SALMONELLA TYPHIMURIUM, Strain/Indicator: TA100, Metabolic Activation: WOODCHUCK, LIVER, S-9, 3-METHYLCHOLANTHRENE, Method: STANDARD PLATE): inactive; negative
- mutagenic call (Test System: AMES SALMONELLA TYPHIMURIUM, Strain/Indicator: TA1535, Metabolic Activation: RAT, LIVER, S-9, AROCLOR 1254, Method: STANDARD PLATE): inactive; negative
- mutagenic call (Test System: AMES SALMONELLA TYPHIMURIUM, Strain/Indicator: TA1535, Metabolic Activation: WOODCHUCK, LIVER, S-9, 3-METHYLCHOLANTHRENE, Method: STANDARD PLATE): inactive; negative
- mutagenic call (Test System: AMES SALMONELLA TYPHIMURIUM, Strain/Indicator: TA1538, Metabolic Activation: RAT, LIVER, S-9, AROCLOR 1254, Method: STANDARD PLATE): inactive; negative
- mutagenic call (Test System: AMES SALMONELLA TYPHIMURIUM, Strain/Indicator: TA1538, Metabolic Activation: WOODCHUCK, LIVER, S-9, 3-METHYLCHOLANTHRENE, Method: STANDARD PLATE): inactive; negative

SMILES: C=CCCCCCCCC
- mutagenic call (Test System: AMES SALMONELLA TYPHIMURIUM, Strain/Indicator: TA98, Metabolic Activation: MOUSE, LIVER, S-9, Method: STANDARD PLATE): inactive; negative
- mutagenic call [1]: inactive; negative
- mutagenic call (Test System: AMES SALMONELLA TYPHIMURIUM, Strain/Indicator: TA100, Metabolic Activation: MOUSE, LIVER, S-9, Method: STANDARD PLATE): inactive; negative
- mutagenic call [2]: inactive; negative
- mutagenic call [3]: inactive; negative
- mutagenic call [5]: inactive; negative

SMILES: CCc1cccc(CC)c1NC(=O)CCl
- mutagenic call (Test System: AMES SALMONELLA TYPHIMURIUM, Strain/Indicator: TA98, Metabolic Activation: NONE, Method: PREINCUBATION): inactive; negative
- mutagenic call (Test System: AMES SALMONELLA TYPHIMURIUM, Strain/Indicator: TA98, Metabolic Activation: RAT, LIVER, MICROSOMES, PHENOBARBITAL, Method: PREINCUBATION): inactive; negative
- mutagenic call (Test System: AMES SALMONELLA TYPHIMURIUM, Strain/Indicator: TA100, Metabolic Activation: NONE, Method: PREINCUBATION): active; positive
- mutagenic call (Test System: AMES SALMONELLA TYPHIMURIUM, Strain/Indicator: TA100, Metabolic Activation: RAT, LIVER, MICROSOMES, PHENOBARBITAL, Method: PREINCUBATION): active; positive

SMILES: O=C1c2c(O)cc(O)cc2O[C@H](c2ccc(O)c(O)c2)[C@H]1O
- mutagenic call (Test System: Ames Salmonella typhimurium, Strain/Indicator: TA102, Metabolic Activation: Fe ++ (1 uM) with NADPH generating system, Method: Preincubation): inactive; negative
- mutagenic call (Test System: Ames Salmonella typhimurium, Strain/Indicator: TA102, Metabolic Activation: None, Method: Preincubation): inactive; negative
- mutagenic call (Test System: Ames Salmonella typhimurium, Strain/Indicator: TA102, Metabolic Activation: Rat, Liver, S-9, Aroclor 1254, Method: Preincubation): inactive; negative
- mutagenic call (Test System: Ames Salmonella typhimurium, Strain/Indicator: TA102, Metabolic Activation: Rat, Liver, S-9, Aroclor 1254 in 0.154 M KCl, Method: Preincubation): inactive; negative
- mutagenic call (Test System: E. coli, Strain/Indicator: WP2 uvrA, Metabolic Activation: Fe ++ (1 uM) with NADPH generating system, Method: Preincubation): inactive; negative. authors say results are positive at 100 and 250 um but results are bar
- mutagenic call (Test System: E. coli, Strain/Indicator: WP2 uvrA, Metabolic Activation: None, Method: Preincubation): inactive; negative
- mutagenic call (Test System: E. coli, Strain/Indicator: WP2 uvrA, Metabolic Activation: Rat, Liver, S-9, Aroclor 1254, Method: Preincubation): inactive; negative

SMILES: CCOP(=O)(OCC)Oc1ccc([N+](=O)[O-])cc1
- mutagenic call (End Point: IN VITRO MICRONUCLEUS, Test System: HUMAN NEWBORN UMBILICAL CORD BLOOD, Metabolic Activation: NONE): active; positive only at highest dose
- mutagenic call (End Point: IN VITRO MICRONUCLEUS, Test System: HUMAN PERIPHERAL LYMPHOCYTES (MALE/FEMALE ADULT), Metabolic Activation: NONE): active; positive only at highest dose
- mutagenic call (End Point: In vitro micronucleus, Test System: Human peripheral blood lymphocytes, Metabolic Activation: None): active; positive. pon1 qq, but not pon1 rr individuals exhibited significant increase in
- mutagenic call [1]: active; positive
- mutagenic call [6]: active; positive
- mutagenic call [2]: inactive; negative
- mutagenic call [7]: active; positive

SMILES: CN(CO)N=O
- mutagenic call (Test System: CHINESE HAMSTER V-79, Strain/Indicator: V-79/OUABAIN, Metabolic Activation: NONE): active; positive

SMILES: NC(=O)c1cc[n+](COC[n+]2ccccc2/C=N/O)cc1
- mutagenic call [1]: inactive; negative
- mutagenic call [6]: inactive; negative
- mutagenic call [2]: inactive; negative
- mutagenic call [7]: inactive; negative
- mutagenic call [3]: inactive; negative
- mutagenic call (Test System: AMES SALMONELLA TYPHIMURIUM, Strain/Indicator: TA1535, Metabolic Activation: RAT, LIVER, S-9, Method: STANDARD PLATE): inactive; negative
- mutagenic call [4]: inactive; negative
- mutagenic call (Test System: AMES SALMONELLA TYPHIMURIUM, Strain/Indicator: TA1537, Metabolic Activation: RAT, LIVER, S-9, Method: STANDARD PLATE): inactive; negative
- mutagenic call [5]: inactive; negative
- mutagenic call (Test System: AMES SALMONELLA TYPHIMURIUM, Strain/Indicator: TA1538, Metabolic Activation: RAT, LIVER, S-9, Method: STANDARD PLATE): inactive; negative
- mutagenic call (Test System: CHINESE HAMSTER OVARY, Strain/Indicator: CHO-K1-BH4 (HGPRT)/6-THIOGUANINE, Metabolic Activation: NONE): inactive; negative
- mutagenic call (Test System: CHINESE HAMSTER OVARY, Strain/Indicator: CHO-K1-BH4 (HGPRT)/6-THIOGUANINE, Metabolic Activation: RAT, LIVER, S-9, Method: SUSPENSION/PLATE): inactive; negative
- mutagenic call (Test System: MOUSE LYMPHOMA, Strain/Indicator: L5178Y (TK+/TK-), Metabolic Activation: NONE, Method: SUSPENSION/PLATE): inactive; negative
